Measured values taken from article PMC8163063 (Chemical Science, 2020).

Tests used:
Escherichia coli = type: cell-based
Bacillus subtilis = type: cell-based

tachyplesin I (KWCFRVCYRGICYRRCR; not fully specified; Tachyplesin-1; UniProt P14213 24-40, looked up) [TPI-1]
MIC against E.coli (Escherichia coli): 4 µg/mL | MIC against B. subtilis (Bacillus subtilis): 4 µg/mL
